Target: T1, human MC5R (hMC5R) (Homo sapiens, UniProt P33032)
T1 construct: purchased Perkin Elmer RBXMC5M400UA
Experiment: Human MC5R radioligand binding assay (membranes, [125I] NDP-MSH displacement)
Conditions: hMC5R binding; tested as trifluoroacetate or hydrochloride salts, or free bases; read-out: MC5R radioligand IC50
In short: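 Frozen human MC5R membranes incubated with test compound and in-house iodogen-labeled, HPLC-purified [125I]NDP-MSH for 1 hr at 37° C. Binding measured as displacement of the radioligand.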

T1 sequence (P33032 whole entry): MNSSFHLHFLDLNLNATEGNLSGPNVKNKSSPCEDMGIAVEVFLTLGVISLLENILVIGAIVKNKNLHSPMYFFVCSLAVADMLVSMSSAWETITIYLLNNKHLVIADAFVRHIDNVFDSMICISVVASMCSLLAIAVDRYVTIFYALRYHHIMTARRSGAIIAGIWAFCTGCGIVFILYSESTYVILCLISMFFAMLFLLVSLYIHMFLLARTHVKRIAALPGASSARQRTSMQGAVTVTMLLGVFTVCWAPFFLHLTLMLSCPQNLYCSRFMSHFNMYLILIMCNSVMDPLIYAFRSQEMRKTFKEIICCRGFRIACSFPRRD

| IC50 | Compound |
| --- | --- |
| < 10000 nM | CNC(=N)NCCC[C@@H]1N[C@H](CNC(=O)[C@H]2Cc3ccccc3CN2)CCN(CC(c2ccccc2)c2ccccc2)C1=O [Compound 130, (R)—N-(((3S,5S)-1-(2,2-diphenylethyl)-3-(3-(3-methylguanidino)propyl)-2-oxo-1,4-diazepan-5-yl)methyl)-1,2,3,4-tetrahydroisoquinoline-3-carboxamide] |
| < 100 nM | O=C(NC[C@@H]1CCN(CC(c2ccccc2)c2ccccc2)C(=O)[C@H](CCCN2CCCCC2)N1)c1ccc2cc(F)ccc2c1 [Compound 359, N-(((3S,5S)-1-(2,2-diphenylethyl)-2-oxo-3-(3-(piperidin-1-yl)propyl)-1,4-diazepan-5-yl)methyl)-6-fluoro-2-naphthamide] |
| < 100 nM | O=C(NC[C@@H]1CCN(CC(c2ccccc2)c2ccccc2)C(=O)[C@H](CCCNCc2ccccc2)N1)c1ccc2ccccc2c1 [Compound 245, N-(((3S,5S)-3-(3-(benzylamino)propyl)-1-(2,2-diphenylethyl)-2-oxo-1,4-diazepan-5-yl)methyl)-2-naphthamide] |
| < 1000 nM | O=C(NCC[C@@H]1CCN(CC(c2ccccc2)c2ccccc2)C(=O)[C@H](CCN2CCCC2)N1)c1ccc2ccccc2c1 [Compound 339, N-(2-((3S,5R)-1-(2,2-diphenylethyl)-2-oxo-3-(2-(pyrrolidin-1-yl)ethyl)-1,4-diazepan-5-yl)ethyl)-2-naphthamide] |
| < 100 nM | NCCC[C@@H]1N[C@H](CNC(=O)c2ccc3cc(Br)ccc3c2)CCN(CC(c2ccccc2)c2ccccc2)C1=O [Compound 211, N-(((3S,5S)-3-(3-aminopropyl)-1-(2,2-diphenylethyl)-2-oxo-1,4-diazepan-5-yl)methyl)-6-bromo-2-naphthamide] |
| < 1000 nM | CCCOC(=O)N[C@@H](Cc1ccc2ccccc2c1)[C@@H]1CCN(CC(c2ccccc2)c2ccccc2)C(=O)[C@H](CCCNC(=N)N)N1 [Compound 83, propyl (S)-1-((3S,5S)-1-(2,2-diphenylethyl)-3-(3-guanidinopropyl)-2-oxo-1,4-diazepan-5-yl)-2-(naphthalen-2-yl)ethylcarbamate] |
| < 1000 nM | C[C@H](C(c1ccccc1)c1ccccc1)N1CC[C@@H](CNC(=O)c2ccc3ccccc3c2)N[C@@H](CCCNC(=N)N)C1=O [Compound 204, N-(((3S,5S)-1-((R)-1,1-diphenylpropan-2-yl)-3-(3-guanidinopropyl)-2-oxo-1,4-diazepan-5-yl)methyl)-2-naphthamide] |
| < 1000 nM | N=C(N)NCCC[C@@H]1N[C@H](CNC(=O)/C(F)=C/c2ccccc2)CCN(CC(c2ccccc2)c2ccccc2)C1=O [Compound 195, (Z)-N-(((3S,5S)-1-(2,2-diphenylethyl)-3-(3-guanidinopropyl)-2-oxo-1,4-diazepan-5-yl)methyl)-2-fluoro-3-phenylacrylamide] |
| < 10 nM | O=C(NC[C@@H]1CCN(CC(c2ccccc2)c2ccccc2)C(=O)[C@H](CCN2CCCCC2)N1)c1ccc2cc(F)ccc2c1 [Compound 379, N-(((3S,5S)-1-(2,2-diphenylethyl)-2-oxo-3-(2-(piperidin-1-yl)ethyl)-1,4-diazepan-5-yl)methyl)-6-fluoro-2-naphthamide] |

The remaining lines, values behind:

| Compound | IC50 |
| --- | --- |
| CC[C@H](CN1CC[C@@H](CNC(=O)c2ccc(Cl)c(Cl)c2)N[C@@H](CCN2CCN(C)CC2)C1=O)c1ccccc1 [Compound 431, 3,4-dichloro-N-(((3S,5S)-3-(2-(4-methylpiperazin-1-yl)ethyl)-2-oxo-1-((S)-2-phenylbutyl)-1,4-diazepan-5-yl)methyl)benzamide] | < 100 nM |
| CCCCOC(=O)NCC[C@@H]1N[C@H](CNC(=O)c2ccc3cc(Cl)ccc3c2)CCN(C[C@@H](CC)c2ccccc2)C1=O [Compound 524, butyl 2-((2S,7S)-7-((6-chloro-2-naphthamido)methyl)-3-oxo-4-((S)-2-phenylbutyl)-1,4-diazepan-2-yl)ethylcarbamate] | < 1000 nM |
| CC[C@H](CN1CC[C@@H](CNC(=O)c2ccccc2-c2ccc(Cl)cc2)N[C@@H](CCN2CCCCC2)C1=O)c1ccccc1 [Compound 497, 4′-chloro-N-(((3S,5S)-2-oxo-1-((S)-2-phenylbutyl)-3-(2-(piperidin-1-yl)ethyl)-1,4-diazepan-5-yl)methyl)biphenyl-2-carboxamide] | < 100 nM |
| CC[C@H](CN1CC[C@@H](CNC(=O)c2ccc(Cl)c(Cl)c2)N[C@@H](CN2CCCCC2)C1=O)c1ccccc1 [Compound 416, 3,4-dichloro-N-(((3S,5S)-2-oxo-1-((S)-2-phenylbutyl)-3-(piperidin-1-ylmethyl)-1,4-diazepan-5-yl)methyl)benzamide] | < 1000 nM |
| O=C(NC[C@@H]1CCN(Cc2cc(Cl)cc(Cl)c2Cl)C(=O)[C@H](CCN2CCCCC2)N1)c1ccc2cc(Cl)ccc2c1 [Compound 522, 6-chloro-N-(((3S,5S)-2-oxo-3-(2-(piperidin-1-yl)ethyl)-1-(2,3,5-trichlorobenzyl)-1,4-diazepan-5-yl)methyl)-2-naphthamide] | < 100 nM |
| O=C(NC[C@@H]1CCN(Cc2cc(Cl)cc(Cl)c2)C(=O)[C@H](CCN2CCCCC2)N1)c1ccc(Cl)cc1Cl [Compound 528, 2,4-dichloro-N-(((3S,5S)-1-(3,5-dichlorobenzyl)-2-oxo-3-(2-(piperidin-1-yl)ethyl)-1,4-diazepan-5-yl)methyl)benzamide] | < 10 nM |
| CC[C@H](CN1CC[C@@H](CNC(=O)c2ccc(Cl)c(Cl)c2)N[C@@H](CCNCc2ccccc2)C1=O)c1ccccc1 [Compound 429, N-(((3S,5S)-3-(2-(benzylamino)ethyl)-2-oxo-1-((S)-2-phenylbutyl)-1,4-diazepan-5-yl)methyl)-3,4-dichlorobenzamide] | < 100 nM |
| CC[C@H](CN1CC[C@@H](CNC(=O)c2ccc(Cl)c(Cl)c2)N[C@@H](CCNC(C)C)C1=O)c1ccccc1 [Compound 465, 3,4-dichloro-N-(((3S,5S)-3-(2-(isopropylamino)ethyl)-2-oxo-1-((S)-2-phenylbutyl)-1,4-diazepan-5-yl)methyl)benzamide] | < 100 nM |
| CCC(CN1CC[C@@H](CNC(=O)c2ccc3cc(Cl)ccc3c2)N[C@@H](CCN)C1=O)c1ccsc1 (stereo partly drawn) [Compound 509, N-(((3S,5S)-3-(2-aminoethyl)-2-oxo-1-(2-(thiophen-3-yl)butyl)-1,4-diazepan-5-yl)methyl)-6-chloro-2-naphthamide] | < 100 nM |
| CCC(CN1CC[C@@H](CNC(=O)c2ccc3cc(Cl)ccc3c2)N[C@@H](CCN)C1=O)C1CC1 (stereo partly drawn) [Compound 487, N-(((3S,5S)-3-(2-aminoethyl)-1-(2-cyclopropylbutyl)-2-oxo-1,4-diazepan-5-yl)methyl)-6-chloro-2-naphthamide] | < 1000 nM |
| CC[C@H](CN1CC[C@@H](CNCc2ccc(Cl)c(Cl)c2)N[C@@H](CCN2CCCCC2)C1=O)c1ccccc1 [Compound 485, (3S,5S)-5-((3,4-dichlorobenzylamino)methyl)-1-((S)-2-phenylbutyl)-3-(2-(piperidin-1-yl)ethyl)-1,4-diazepan-2-one] | < 100 nM |
| CC[C@H](CN1CC[C@@H](CNC(=O)c2ccc(Cl)c(Cl)c2)N[C@@H](CCN(C)Cc2ccccc2)C1=O)c1ccccc1 [Compound 442, N-(((3S,5S)-3-(2-(benzyl(methyl)amino)ethyl)-2-oxo-1-((S)-2-phenylbutyl)-1,4-diazepan-5-yl)methyl)-3,4-dichlorobenzamide] | < 10 nM |
